Peptide text beside a SMILES is read from it.
Biological target: Angiotensin-converting enzyme (Homo sapiens, UniProt P12821)
Experiment: Biological activity was measured against Angiotensin I converting enzyme
Settings: read-out: Log 1/IC50 (converted)

Sequence of Angiotensin-converting enzyme (P12821 whole entry): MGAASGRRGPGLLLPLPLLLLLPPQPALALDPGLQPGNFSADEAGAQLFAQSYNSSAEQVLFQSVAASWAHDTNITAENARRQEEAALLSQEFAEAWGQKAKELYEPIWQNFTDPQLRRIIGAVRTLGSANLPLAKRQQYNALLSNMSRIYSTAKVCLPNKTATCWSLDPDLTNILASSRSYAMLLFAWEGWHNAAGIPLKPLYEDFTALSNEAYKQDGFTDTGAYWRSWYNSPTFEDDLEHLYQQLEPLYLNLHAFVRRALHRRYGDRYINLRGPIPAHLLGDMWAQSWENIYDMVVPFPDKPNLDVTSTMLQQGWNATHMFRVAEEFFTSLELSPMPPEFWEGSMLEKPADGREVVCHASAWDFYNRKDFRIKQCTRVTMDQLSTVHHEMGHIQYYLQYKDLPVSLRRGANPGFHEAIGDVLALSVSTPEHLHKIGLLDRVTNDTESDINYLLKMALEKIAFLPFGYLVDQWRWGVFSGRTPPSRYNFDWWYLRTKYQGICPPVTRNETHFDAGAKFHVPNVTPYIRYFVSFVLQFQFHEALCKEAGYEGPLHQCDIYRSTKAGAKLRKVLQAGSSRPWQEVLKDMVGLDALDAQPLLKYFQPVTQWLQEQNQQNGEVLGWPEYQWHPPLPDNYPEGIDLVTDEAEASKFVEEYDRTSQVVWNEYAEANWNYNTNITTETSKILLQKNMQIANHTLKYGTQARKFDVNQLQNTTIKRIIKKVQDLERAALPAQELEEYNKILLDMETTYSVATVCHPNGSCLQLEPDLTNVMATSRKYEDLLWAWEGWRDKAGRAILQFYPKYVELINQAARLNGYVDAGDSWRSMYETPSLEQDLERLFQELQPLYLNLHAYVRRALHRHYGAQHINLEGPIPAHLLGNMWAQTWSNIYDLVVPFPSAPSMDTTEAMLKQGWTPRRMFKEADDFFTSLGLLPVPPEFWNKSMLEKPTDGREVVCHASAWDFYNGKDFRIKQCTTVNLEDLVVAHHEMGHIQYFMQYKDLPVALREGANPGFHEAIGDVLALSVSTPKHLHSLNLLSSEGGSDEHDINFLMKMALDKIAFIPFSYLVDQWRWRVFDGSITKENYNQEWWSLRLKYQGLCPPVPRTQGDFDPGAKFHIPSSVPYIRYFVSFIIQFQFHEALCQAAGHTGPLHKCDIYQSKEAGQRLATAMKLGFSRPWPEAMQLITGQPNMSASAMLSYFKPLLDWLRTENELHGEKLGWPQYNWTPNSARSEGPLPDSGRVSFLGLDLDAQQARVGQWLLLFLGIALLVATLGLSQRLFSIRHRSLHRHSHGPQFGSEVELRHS

SMILES	IC50 [µM]
C[C@H](NC(=O)[C@@H](N)CCCN=C(N)N)C(=O)O (H-Arg-Ala-OH)	457
CC(C)C[C@H](N)C(=O)N[C@@H](C)C(=O)O [LEU-ALA] (H-Leu-Ala-OH)	309
N[C@@H](CO)C(=O)NCC(=O)O (H-Ser-Gly-OH)	8510
CSCC[C@H](N)C(=O)NCC(=O)O (H-Met-Gly-OH)	4790
NCCCC[C@H](NC(=O)CN)C(=O)O (H-Gly-Lys-OH)	5370
C[C@H](NC(=O)[C@@H](N)Cc1ccc(O)cc1)C(=O)O	457
CC[C@H](C)[C@H](N)C(=O)N1CCCC1C(=O)O (single isomer, unassigned)	129
CC(C)[C@H](N)C(=O)NCC(=O)O [VAL-GLY] (H-Val-Gly-OH)	1100
C[C@H](N)C(=O)N[C@@H](C)C(=O)O (H-Ala-Ala-OH)	617
C[C@H](N)C(=O)NCC(=O)O (H-Ala-Gly-OH)	2510
NCC(=O)N[C@@H](Cc1ccc(O)cc1)C(=O)O (H-Gly-Tyr-OH)	209
CC(C)C[C@H](NC(=O)[C@@H](N)Cc1c[nH]cn1)C(=O)O (H-His-Leu-OH)	3240
C[C@H](NC(=O)CN)C(=O)O (H-Gly-Ala-OH)	2000
C[C@H](O)[C@H](N)C(=O)NCC(=O)O	10000
NCCCC[C@H](N)C(=O)NCC(=O)O (H-Lys-Gly-OH)	3240
NCC(=O)N[C@@H](CC(=O)O)C(=O)O (H-Gly-Asp-OH)	9120
N=C(N)NCCC[C@H](N)C(=O)N[C@@H](Cc1ccccc1)C(=O)O	229
CC[C@H](C)[C@H](N)C(=O)NCC(=O)O (H-Ile-Gly-OH)	1200
C[C@H](N)C(=O)N[C@@H](Cc1c[nH]c2ccccc12)C(=O)O (H-Ala-Trp-OH)	10
NCC(=O)N[C@@H](CCC(=O)O)C(=O)O (H-Gly-Glu-OH)	5370
NC(N)=NCCC[C@H](N)C(=O)N[C@@H](Cc1c[nH]c2ccccc12)C(=O)O (H-Arg-Trp-OH)	15.8

More lines, now with the values ahead:

IC50 [µM]	SMILES
380	C[C@H](NC(=O)[C@@H](N)CCCCN)C(=O)O (H-Lys-Ala-OH)
7410	NC(=O)CC[C@H](N)C(=O)NCC(=O)O (H-Gln-Gly-OH)
3800	C[C@H](NC(=O)[C@@H](N)CC(=O)O)C(=O)O (H-Asp-Ala-OH)
6310	N[C@@H](Cc1c[nH]cn1)C(=O)NCC(=O)O (H-His-Gly-OH)
87.1	C[C@H](N)C(=O)N[C@@H](Cc1ccc(O)cc1)C(=O)O (H-Ala-Tyr-OH)
2	CC[C@H](C)[C@H](N)C(=O)N[C@@H](Cc1c[nH]c2ccccc12)C(=O)O
1410	CSCC[C@H](NC(=O)CN)C(=O)O
5750	C[C@@H](O)[C@H](NC(=O)CN)C(=O)O (H-Gly-Thr-OH)
5890	N[C@@H](Cc1c[nH]c2ccccc12)C(=O)NCC(=O)O (H-Trp-Gly-OH)
182	N=C(N)NCCC[C@H](N)C(=O)N1CCC[C@@H]1C(=O)O
30.2	NCC(=O)N[C@@H](Cc1c[nH]c2ccccc12)C(=O)O (H-Gly-Trp-OH)
933	CC[C@H](C)[C@H](N)C(=O)N[C@@H](Cc1ccccc1)C(=O)O (H-Ile-Phe-OH)
3800	NCC(=O)N[C@@H](CO)C(=O)O (H-Gly-Ser-OH)
8710	CC(C)C[C@H](N)C(=O)NCC(=O)O (H-Leu-Gly-OH)
10000	C[C@H](NC(=O)[C@@H](N)CCC(=O)O)C(=O)O (H-Glu-Ala-OH)
1200	CC[C@H](C)[C@H](NC(=O)CN)C(=O)O (H-Gly-Ile-OH)
21.9	CC(C)[C@H](N)C(=O)N[C@@H](Cc1ccc(O)cc1)C(=O)O (H-Val-Tyr-OH)
7240	NCC(=O)NCC(=O)O (H-Gly-Gly-OH)
4570	CC(C)[C@H](NC(=O)CN)C(=O)O (H-Gly-Val-OH)
3240	N=C(N)NCCC[C@H](NC(=O)CN)C(=O)O (H-Gly-Arg-OH)
7080	NCC(=O)N[C@@H](CCC(N)=O)C(=O)O (H-Gly-Gln-OH)
